Like-named read-outs stand apart in the source and are kept apart here.
How the values were obtained:
in vitro [1] = assay: in vitro; parameters: species or system HB2, HEK293; conditions: human, ccd841 cells
in vitro [2] = assay: in vitro; parameters: species or system CCD841, HEK293; conditions: human, hb2 cells, read-out: HB-2 Cells Viability (%)
in vitro [3] = assay: in vitro; parameters: species or system HB2, CCD841; conditions: human, hek293 cells
BSA = biological target: T1, BSA (Bos taurus, UniProt P02769); parameters: Intact protein LC/MS covalent labelling, fragments in pools of five, 200 uM each, 4 °C; conditions: 24 h, 4 °C, pool of five; 200 µM; covalent
T1 construct: gene ALB
Method: (§1) Incubations were performed at 200 μM for each compound and 2 μM of protein (10 μM for BSA) for 24 h at 4 °C with moderate shaking. Incubation buffers varied among proteins (PBS pH 7.4 for QSOX1 and BSA; 10 mM HEPES pH 7.5, 0.3 M NaCl, 0.5 mM TCEP for PCAF, UPS8, and NUDT7; […]; 10 mM Na2HPO4 pH 7.5 100 mM NaCl 5 mM β-mercaptoethanol for NV3CP; 20 mM Na phosphate pH 7.5 for NNMT; […]. The reaction was stopped by quenching with formic acid, 0.4% final concentration. Each protein was incubated with the electrophilic library in pools of five compounds per well. The pool’s composition maximized the difference in mass between fragments in the same well. Incubations were performed with each fragment at 200 μM, for 24 h at 4 °C, to allow the screening of proteins that are not stable for long time periods at higher temperatures. Following incubation, we used intact protein [compound left out] chromatography/mass spectrometry (LC/MS) to identify the fragments and quantify their labeling (Figure 3A). […] There was good agreement between the percent of labeling of NUDT7 by 100 random individual compounds and that obtained in pools of five (R^2=0.78; Figure S6 and Data set 2 in the Supporting Information).

PCAF = biological target: T2, PCAF (Homo sapiens, UniProt Q92831); parameters: Intact protein LC/MS covalent labelling, fragments in pools of five, 200 uM each, 4 °C; conditions: 24 h, 4 °C, pool of five; 200 µM; covalent
T2 construct: gene KAT2B
Method: as §1

NUDT7 = biological target: T3, NUDT7 (Homo sapiens, UniProt P0C024); parameters: Intact protein LC/MS covalent labelling, fragments in pools of five, 200 uM each, 4 °C; conditions: 24 h, 4 °C, pool of five; 200 µM; covalent
T3 construct: residues 14-235, E. coli, pNIC28-Bsa4, N-terminal His6 tag removed by TEV, construct 26672 Da
Method: as §1

OTUB2 (OTUB2A) = biological target: T4, OTUB2 (OTUB2A) (Homo sapiens, UniProt Q96DC9); parameters: Intact protein LC/MS covalent labelling, fragments in pools of five, 200 uM each, 4 °C; conditions: 24 h, 4 °C, pool of five; 200 µM; covalent
T4 construct: full length residues 1-234, E. coli BL21(DE3)-R3, His tag removed by TEV, construct 27312 Da
T4 sequence (Q96DC9 1-234): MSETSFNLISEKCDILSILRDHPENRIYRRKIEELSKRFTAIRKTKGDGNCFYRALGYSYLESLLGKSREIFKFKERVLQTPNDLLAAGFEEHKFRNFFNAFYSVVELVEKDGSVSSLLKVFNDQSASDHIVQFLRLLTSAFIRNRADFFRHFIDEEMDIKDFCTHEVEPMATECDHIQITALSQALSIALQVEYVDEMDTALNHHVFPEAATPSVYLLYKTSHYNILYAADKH
Method: as §1

T1 sequence (P02769 whole entry, the tested form may be a part): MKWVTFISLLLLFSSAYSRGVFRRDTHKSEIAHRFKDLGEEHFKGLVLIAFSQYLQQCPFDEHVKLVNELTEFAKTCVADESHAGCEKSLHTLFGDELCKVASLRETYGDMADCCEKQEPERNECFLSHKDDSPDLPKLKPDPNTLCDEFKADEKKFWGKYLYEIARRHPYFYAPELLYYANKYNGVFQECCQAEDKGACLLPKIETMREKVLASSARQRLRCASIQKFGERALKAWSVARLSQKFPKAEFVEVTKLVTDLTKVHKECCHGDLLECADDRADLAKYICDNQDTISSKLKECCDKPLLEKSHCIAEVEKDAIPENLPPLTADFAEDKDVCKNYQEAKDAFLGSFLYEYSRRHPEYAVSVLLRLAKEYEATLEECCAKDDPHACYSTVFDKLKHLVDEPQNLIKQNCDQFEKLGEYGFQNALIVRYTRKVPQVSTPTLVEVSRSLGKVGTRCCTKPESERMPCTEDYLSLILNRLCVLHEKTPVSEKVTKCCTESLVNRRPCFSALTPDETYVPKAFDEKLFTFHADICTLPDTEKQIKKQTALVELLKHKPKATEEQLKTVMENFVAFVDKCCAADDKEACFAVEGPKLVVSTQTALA
T3 sequence (P0C024 14-235): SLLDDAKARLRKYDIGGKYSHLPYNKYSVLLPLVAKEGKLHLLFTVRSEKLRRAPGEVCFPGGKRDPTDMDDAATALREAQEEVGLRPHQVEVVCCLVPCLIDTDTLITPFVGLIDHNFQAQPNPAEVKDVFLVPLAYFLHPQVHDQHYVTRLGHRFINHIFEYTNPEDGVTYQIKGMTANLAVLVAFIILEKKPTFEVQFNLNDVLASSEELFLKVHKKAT
T2 sequence (Q92831 whole entry, the tested form may be a part): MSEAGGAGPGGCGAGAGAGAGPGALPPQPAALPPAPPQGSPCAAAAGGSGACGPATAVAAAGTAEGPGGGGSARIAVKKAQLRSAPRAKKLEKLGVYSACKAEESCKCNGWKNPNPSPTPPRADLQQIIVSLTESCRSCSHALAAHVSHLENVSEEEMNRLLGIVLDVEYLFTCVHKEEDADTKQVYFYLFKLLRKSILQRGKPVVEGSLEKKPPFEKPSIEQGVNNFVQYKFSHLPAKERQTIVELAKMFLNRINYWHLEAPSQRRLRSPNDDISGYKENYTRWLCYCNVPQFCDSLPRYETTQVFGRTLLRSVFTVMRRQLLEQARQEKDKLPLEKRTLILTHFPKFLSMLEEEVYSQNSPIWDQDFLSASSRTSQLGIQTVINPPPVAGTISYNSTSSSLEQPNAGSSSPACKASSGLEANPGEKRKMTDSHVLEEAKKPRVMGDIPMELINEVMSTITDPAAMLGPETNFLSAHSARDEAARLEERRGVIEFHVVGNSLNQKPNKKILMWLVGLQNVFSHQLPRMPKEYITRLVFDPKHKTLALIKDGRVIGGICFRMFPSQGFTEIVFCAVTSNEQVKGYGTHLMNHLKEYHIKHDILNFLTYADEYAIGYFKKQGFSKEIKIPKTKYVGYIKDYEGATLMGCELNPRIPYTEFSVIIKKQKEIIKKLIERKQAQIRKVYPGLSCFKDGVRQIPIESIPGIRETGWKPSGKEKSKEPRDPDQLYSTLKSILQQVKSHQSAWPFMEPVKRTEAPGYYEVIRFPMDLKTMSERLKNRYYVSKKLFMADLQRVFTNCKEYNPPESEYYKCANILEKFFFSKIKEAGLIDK

Compound	viability at 48 h, 10 µM (in vitro [1]) [%]	viability at 48 h, 10 µM (in vitro [2]) [%]	viability at 48 h, 10 µM (in vitro [3]) [%]	BSA (BSA)	PCAF (PCAF)	NUDT7 (NUDT7)	OTUB2 (OTUB2 (OTUB2A))
Cl.O=C(CCl)N1CCN(c2ncccn2)CC1 [PCM-0102093]	83.3	57.5	63.9	0	0	0	0
O=C(CCl)N1CCN(c2ccc([N+](=O)[O-])cc2)CC1 [PCM-0102094]	9.2	1.2	1.3	0	0	0.27	0
CC(NC(=O)CCl)c1ccc(Cl)c(Cl)c1 (centres unmarked) [PCM-0102096]	58.1	28.9	21.3	0	0	0.51	0.26
O=C(CCl)Nc1cccc2ncccc12 [PCM-0102097]	51.3	49	27.9	0	0	0	0.42
Cc1ccc([N+](=O)[O-])cc1NC(=O)CCl [PCM-0102098]	2	1.1	1.2	0	0	0.12	0.33
Cc1c(C#N)c(NC(=O)CCl)n(-c2ccc(F)cc2)c1C [PCM-0102099]	53.9	33.6	11.6	0	0	0.17	0
O=C(CCl)Nc1ccc(-c2nnc3n2CCCCC3)cc1 [PCM-0102101]	61.9	36.7	17.5	0	0	0	0.28
Cc1ccc(C2=NN(C(=O)CCl)C(c3ccco3)C2)o1 (centres unmarked) [PCM-0102102]	12.7	9.4	1.6	0	0	0.2	0
CCN1CCC(NC(=O)CCl)CC1.Cl [PCM-0102103]	84.1	96	66.8	0	0	0	0
O=C(CCl)Nc1ccc2c(c1)OC1(CCCCC1)O2 [PCM-0102104]	62.1	5.9	1.4	0	0	0.08	0.47
CCN(C(=O)CCl)C1CCS(=O)(=O)C1 (centres unmarked) [PCM-0102105]	68.1	95	54.9	0	0	0	0
C=CC(=O)NC(=O)NC12CC3CC(CC(C3)C1)C2 [PCM-0102106]	80.9	26.6	42	0	0	0.79	0
N#Cc1c2c(n(-c3ccccc3)c1NC(=O)CCl)CCCC2 [PCM-0102107]	53.9	18	7.6	0	0	0.46	0.08
O=C(CCl)NC1CCCCNC1=O (centres unmarked) [PCM-0102109]	103	94.1	109	0	0	0	0
CC(NC(=O)CCl)c1ccccc1Cl (centres unmarked) [PCM-0102110]	74.2	70.8	65.7	0	0	0	0.25
O=C(CCl)Nc1ccc(Cl)c(Cl)c1 [PCM-0102112]	26	2	1.4	0	0	0.18	0.3
CC(=O)Nc1ccc(NC(=O)CCl)cc1 [PCM-0102114]	57.7	69.9	56	0	0	0	0
Cc1cccc(NC(=O)CCl)c1 [PCM-0102116]	66.4	33.7	9	0	0	0	0.11
CC(NC(=O)CCl)c1cc2ccccc2o1 (centres unmarked) [PCM-0102117]	70.7	71	62.9	0	0	0.12	0.41
O=C(CCl)Nc1ccc(Cl)cc1 [PCM-0102120]	55.2	16.7	2.7	0	0	0.18	0.23
O=C(CCl)N1CCN(S(=O)(=O)c2ccc(Cl)s2)CC1 [PCM-0102121]	20.6	1.7	2	0	0	0.15	0
O=C(CCl)NC(=O)NCc1ccccc1 [PCM-0102122]	76.9	54.8	65.5	0	0	0	0
O=C(CCl)N1CCc2sccc2C1 [PCM-0102123]	73.1	9.2	6.6	0	0	0.14	0.39
O=C(CCl)N1CCN(c2ccc(Cl)cc2[N+](=O)[O-])CC1 [PCM-0102125]	8.1	2.3	1.4	0	0	0.29	0
O=C(CCl)Nc1ccc(Cl)cc1C(=O)O [PCM-0102127]	104	100	86.8	0	0	0	0.1
CC(=O)N1CCc2cc(NC(=O)CCl)ccc21 [PCM-0102129]	50.6	33.4	5.9	0	0	0.07	0.31
Cc1c(C#N)sc(NC(=O)CCl)c1C#N [PCM-0102371]	102	94.3	87.5	–	0	0	0
C=CC(=O)N1CCC(Cc2ccccn2)CC1 [PCM-0102473]	112	100	98.6	–	0	0	0
O=C(Nc1ccccc1)NN(C(=O)CCl)c1ccccc1 [PCM-0102957]	1.1	3.7	0.8	–	0	1	0

From article PMC6556873, “Rapid Covalent-Probe Discovery by Electrophile-Fragment Screening” (Journal of the American Chemical Society, 2019)
